Assay results: ChEMBL document CHEMBL3885881, “DrugMatrix”

Species: Rattus norvegicus
Assay: DrugMatrix - Regimen: Daily Repeat
Assay type: toxicity, organism-based, Sprague-Dawley
Parameters: regimen Daily Repeat, gender Male, age 6-8 weeks
Conditions: in vivo, iv, 0 mg/kg, dose level Control, vehicle 100 % SALINE
[1] = 72 h, tissue Plasma, time 3 day
[2] = 120 h, tissue Blood, time 5 day
[3] = 120 h, tissue Plasma, time 5 day

With LIPOPOLYSACCHARIDE E. COLI O55:B5 the “ABSOLUTE BASOPHIL” value (72 h, tissue Blood, time 3 day) was 0 CELLS/uL, the “ABSOLUTE EOSINOPHIL” value (72 h, tissue Blood, time 3 day) was 33.67 CELLS/uL and the “ABSOLUTE LYMPHOCYTE” value (72 h, tissue Blood, time 3 day) was 12123.5 CELLS/uL. For the same sequence, the “ABSOLUTE MONOCYTE” value (72 h, tissue Blood, time 3 day) was 243.5 CELLS/uL, the “ABSOLUTE SEGMENTED NEUTROPHIL” value (72 h, tissue Blood, time 3 day) was 1282.67 CELLS/uL and the BASOPHIL (72 h, tissue Blood, time 3 day) was 0%. The EOSINOPHIL (72 h, tissue Blood, time 3 day) was 0.33%, the “ERYTHROCYTE COUNT” value (72 h, tissue Blood, time 3 day) was 5.18 x10E6/uL and the HEMATOCRIT (72 h, tissue Blood, time 3 day) was 32.63%. The “LEUKOCYTE COUNT” value (72 h, tissue Blood, time 3 day) was 13.68 x10E3/uL, the LYMPHOCYTE (72 h, tissue Blood, time 3 day) was 88.67% and the “MEAN CORPUSCULAR HEMOGLOBIN” value (72 h, tissue Blood, time 3 day) was 24.98 pg. For the same sequence, the NEUTROPHIL (72 h, tissue Blood, time 3 day) was 9.17%, the “NUCLEATED RED BLOOD CELLS” value (72 h, tissue Blood, time 3 day) was 0.17 /100WBC and the “PLATELET COUNT” value (72 h, tissue Blood, time 3 day) was 1114.5 x10E3/uL. The “ALANINE AMINOTRANSFERASE” value [1] was 46.17 u/L, the “ALKALINE PHOSPHATASE” value [1] was 374.67 u/L and the “ASPARTATE AMINOTRANSFERASE” value [1] was 89.33 u/L. The “BLOOD UREA NITROGEN” value [1] was 14.83 mg/dL, the “CARBON DIOXIDE” value [1] was 25.67 mmol/L and the CHOLESTEROL [1] was 63.5 mg/dL. For the same sequence, the “CREATINE PHOSPHOKINASE” value [1] was 494.67 u/L, the CREATININE [1] was 0.17 mg/dL and the “LACTATE DEHYDROGENASE” value [1] was 269.33 u/L. For the same sequence, the PHOSPHORUS [1] was 11.27 mg/dL, the POTASSIUM [1] was 5.85 MEQ/L and the “TOTAL BILIRUBIN” value [1] was 0.18 mg/dL. For the same sequence, the “TOTAL PROTEIN” value [1] was 5.87 G/DL, the “URIC ACID” value [1] was 1.28 mg/dL and the “ABSOLUTE BASOPHIL” value [2] was 0 CELLS/uL. For the same sequence, the “ABSOLUTE EOSINOPHIL” value [2] was 24.67 CELLS/uL, the “ABSOLUTE LYMPHOCYTE” value [2] was 11832.83 CELLS/uL and the “ABSOLUTE MONOCYTE” value [2] was 279.67 CELLS/uL. The “ABSOLUTE SEGMENTED NEUTROPHIL” value [2] was 1446.17 CELLS/uL, the BASOPHIL [2] was 0% and the EOSINOPHIL [2] was 0.17%. For the same sequence, the “ERYTHROCYTE COUNT” value [2] was 5.61 x10E6/uL, the HEMATOCRIT [2] was 35.02% and the HEMOGLOBIN [2] was 13.82 G/DL. The “LEUKOCYTE COUNT” value [2] was 13.58 x10E3/uL, the LYMPHOCYTE [2] was 87.67% and the “MEAN CORPUSCULAR HEMOGLOBIN” value [2] was 24.68 pg. For the same sequence, the MONOCYTE [2] was 2%, the NEUTROPHIL [2] was 10.17% and the “NUCLEATED RED BLOOD CELLS” value [2] was 0 /100WBC. For the same sequence, the “PLATELET COUNT” value [2] was 1178.17 x10E3/uL, the “ALANINE AMINOTRANSFERASE” value [3] was 52.83 u/L and the “ALKALINE PHOSPHATASE” value [3] was 370 u/L. For the same sequence, the “ASPARTATE AMINOTRANSFERASE” value [3] was 100.5 u/L, the “BLOOD UREA NITROGEN” value [3] was 15.17 mg/dL and the “CARBON DIOXIDE” value [3] was 28.83 mmol/L. The CHOLESTEROL [3] was 69.5 mg/dL, the “CREATINE PHOSPHOKINASE” value [3] was 488.67 u/L and the CREATININE [3] was 0.23 mg/dL. For the same sequence, the GLUCOSE [3] was 165 mg/dL, the “LACTATE DEHYDROGENASE” value [3] was 502.17 u/L and the LIPASE [3] was 11 u/L. For the same sequence, the PHOSPHORUS [3] was 11.7 mg/dL, the POTASSIUM [3] was 5.85 MEQ/L and the “TOTAL BILIRUBIN” value [3] was 0.18 mg/dL.
